Results from ChEMBL document CHEMBL5214903, “Diversity-oriented synthesis as a tool to expand the chemical space of DNA-encoded libraries” (Bioorg Med Chem, 2021).
One block for each compound: values may come before it.

Tests used:
[1] = molecular target: E3 ubiquitin-protein ligase Mdm2 (Homo sapiens, UniProt Q00987); assay: Binding affinity to MDM2 (unknown origin) assessed as dissociation constant
[2] = molecular target: Bromodomain-containing protein 3 (Homo sapiens, UniProt Q15059); assay: Binding affinity to recombinant human BRD3 bromodomain-1 (44 to 168 residues) expressed in Escherichia coli BL21 (DE3) cells assessed as inhibition constant by fluorescence polarization assay
Bromodomain-containing protein 3, sequence (Q15059 whole entry, the tested form may be a part): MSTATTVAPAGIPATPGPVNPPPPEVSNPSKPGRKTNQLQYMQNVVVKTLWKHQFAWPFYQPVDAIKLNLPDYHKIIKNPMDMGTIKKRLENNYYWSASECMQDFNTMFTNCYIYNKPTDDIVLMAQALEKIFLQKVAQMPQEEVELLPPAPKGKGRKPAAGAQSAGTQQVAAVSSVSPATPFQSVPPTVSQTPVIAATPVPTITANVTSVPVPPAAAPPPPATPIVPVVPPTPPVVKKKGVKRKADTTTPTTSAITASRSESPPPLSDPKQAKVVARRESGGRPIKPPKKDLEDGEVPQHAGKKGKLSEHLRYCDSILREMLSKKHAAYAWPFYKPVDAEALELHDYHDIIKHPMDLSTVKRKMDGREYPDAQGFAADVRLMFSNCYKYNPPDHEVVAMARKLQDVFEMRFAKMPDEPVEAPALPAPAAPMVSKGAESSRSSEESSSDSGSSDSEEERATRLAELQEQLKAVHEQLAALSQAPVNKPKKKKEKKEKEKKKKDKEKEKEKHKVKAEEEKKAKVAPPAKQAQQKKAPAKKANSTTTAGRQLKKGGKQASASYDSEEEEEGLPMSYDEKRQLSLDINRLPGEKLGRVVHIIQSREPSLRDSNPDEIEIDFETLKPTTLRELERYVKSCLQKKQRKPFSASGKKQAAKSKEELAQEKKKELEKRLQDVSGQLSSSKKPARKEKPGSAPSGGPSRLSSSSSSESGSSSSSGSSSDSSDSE

[3] = molecular target: Histone acetyltransferase p300 (Homo sapiens, UniProt Q09472); assay: Inhibition of p300 (unknown origin) using [3H]-Ac-CoA as substrate preincubated for 15 mins followed by substrate addition and measured after 60 mins by Flashplate assay
Histone acetyltransferase p300, sequence (Q09472 whole entry): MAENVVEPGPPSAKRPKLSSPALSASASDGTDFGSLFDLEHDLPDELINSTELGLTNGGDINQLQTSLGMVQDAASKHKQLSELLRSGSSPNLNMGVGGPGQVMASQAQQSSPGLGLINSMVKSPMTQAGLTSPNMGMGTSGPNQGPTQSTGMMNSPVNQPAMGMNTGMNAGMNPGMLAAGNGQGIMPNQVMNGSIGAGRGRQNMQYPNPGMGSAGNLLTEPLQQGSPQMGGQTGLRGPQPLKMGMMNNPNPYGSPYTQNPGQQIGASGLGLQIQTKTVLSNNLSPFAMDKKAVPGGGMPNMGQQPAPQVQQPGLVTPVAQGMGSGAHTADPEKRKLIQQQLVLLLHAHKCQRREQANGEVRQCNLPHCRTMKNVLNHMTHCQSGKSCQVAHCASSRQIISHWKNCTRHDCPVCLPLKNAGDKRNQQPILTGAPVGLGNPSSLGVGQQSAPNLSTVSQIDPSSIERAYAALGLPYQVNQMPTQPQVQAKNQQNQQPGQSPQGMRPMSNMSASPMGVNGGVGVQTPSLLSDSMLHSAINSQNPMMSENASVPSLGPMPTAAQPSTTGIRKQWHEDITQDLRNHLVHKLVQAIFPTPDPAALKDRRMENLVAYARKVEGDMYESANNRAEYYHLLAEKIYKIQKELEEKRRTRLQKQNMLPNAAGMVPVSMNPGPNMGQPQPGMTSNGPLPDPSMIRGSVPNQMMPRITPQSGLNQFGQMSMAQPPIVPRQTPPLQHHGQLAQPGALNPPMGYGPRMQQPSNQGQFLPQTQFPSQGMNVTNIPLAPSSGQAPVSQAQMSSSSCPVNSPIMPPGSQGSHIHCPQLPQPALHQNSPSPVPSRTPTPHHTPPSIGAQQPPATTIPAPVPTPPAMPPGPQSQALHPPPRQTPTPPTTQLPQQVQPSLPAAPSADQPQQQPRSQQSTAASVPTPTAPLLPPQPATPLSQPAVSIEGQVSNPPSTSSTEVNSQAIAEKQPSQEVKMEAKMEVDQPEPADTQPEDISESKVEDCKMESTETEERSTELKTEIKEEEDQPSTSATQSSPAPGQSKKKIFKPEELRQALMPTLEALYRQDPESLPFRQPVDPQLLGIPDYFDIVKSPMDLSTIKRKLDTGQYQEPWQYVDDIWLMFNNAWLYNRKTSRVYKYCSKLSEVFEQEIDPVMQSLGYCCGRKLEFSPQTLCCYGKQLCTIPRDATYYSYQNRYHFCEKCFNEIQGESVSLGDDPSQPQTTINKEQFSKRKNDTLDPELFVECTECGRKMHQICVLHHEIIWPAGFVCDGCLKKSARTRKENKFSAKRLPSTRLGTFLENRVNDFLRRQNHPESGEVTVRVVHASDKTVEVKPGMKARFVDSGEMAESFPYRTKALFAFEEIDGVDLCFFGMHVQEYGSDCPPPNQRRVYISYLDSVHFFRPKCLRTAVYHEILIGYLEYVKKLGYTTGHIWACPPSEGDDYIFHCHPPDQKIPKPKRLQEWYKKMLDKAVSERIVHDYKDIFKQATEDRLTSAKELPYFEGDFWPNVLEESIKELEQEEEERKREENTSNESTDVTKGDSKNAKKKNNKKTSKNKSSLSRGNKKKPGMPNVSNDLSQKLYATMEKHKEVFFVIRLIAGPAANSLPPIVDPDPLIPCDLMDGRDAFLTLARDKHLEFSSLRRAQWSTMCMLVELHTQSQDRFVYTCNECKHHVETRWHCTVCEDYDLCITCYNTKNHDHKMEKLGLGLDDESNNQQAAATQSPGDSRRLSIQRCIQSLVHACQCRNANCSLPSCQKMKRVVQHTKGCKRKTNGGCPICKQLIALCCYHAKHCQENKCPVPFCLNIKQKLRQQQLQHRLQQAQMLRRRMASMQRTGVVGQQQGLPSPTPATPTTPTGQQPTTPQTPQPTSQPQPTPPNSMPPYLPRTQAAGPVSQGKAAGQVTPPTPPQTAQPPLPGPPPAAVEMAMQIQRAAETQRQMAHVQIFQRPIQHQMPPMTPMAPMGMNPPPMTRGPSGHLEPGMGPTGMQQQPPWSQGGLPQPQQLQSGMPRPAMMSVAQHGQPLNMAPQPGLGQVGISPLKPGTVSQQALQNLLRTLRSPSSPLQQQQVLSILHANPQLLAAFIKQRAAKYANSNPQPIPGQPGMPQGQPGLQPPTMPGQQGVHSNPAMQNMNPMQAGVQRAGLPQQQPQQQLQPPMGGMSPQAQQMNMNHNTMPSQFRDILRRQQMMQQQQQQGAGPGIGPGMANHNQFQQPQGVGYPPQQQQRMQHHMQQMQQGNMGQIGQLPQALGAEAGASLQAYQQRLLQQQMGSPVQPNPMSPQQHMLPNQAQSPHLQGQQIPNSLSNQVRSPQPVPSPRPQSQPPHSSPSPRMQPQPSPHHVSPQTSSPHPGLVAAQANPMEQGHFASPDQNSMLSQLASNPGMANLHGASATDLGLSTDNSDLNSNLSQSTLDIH

[4] = Inhibition of Aurora (unknown origin); set-up: species or system Homo sapiens
[5] = molecular target: Transcriptional enhancer factor TEF-3 (Homo sapiens, UniProt Q15561); assay: Inhibition of YAP binding to human TEAD4 by fluorescence polarization assay
Transcriptional enhancer factor TEF-3, sequence (Q15561 whole entry): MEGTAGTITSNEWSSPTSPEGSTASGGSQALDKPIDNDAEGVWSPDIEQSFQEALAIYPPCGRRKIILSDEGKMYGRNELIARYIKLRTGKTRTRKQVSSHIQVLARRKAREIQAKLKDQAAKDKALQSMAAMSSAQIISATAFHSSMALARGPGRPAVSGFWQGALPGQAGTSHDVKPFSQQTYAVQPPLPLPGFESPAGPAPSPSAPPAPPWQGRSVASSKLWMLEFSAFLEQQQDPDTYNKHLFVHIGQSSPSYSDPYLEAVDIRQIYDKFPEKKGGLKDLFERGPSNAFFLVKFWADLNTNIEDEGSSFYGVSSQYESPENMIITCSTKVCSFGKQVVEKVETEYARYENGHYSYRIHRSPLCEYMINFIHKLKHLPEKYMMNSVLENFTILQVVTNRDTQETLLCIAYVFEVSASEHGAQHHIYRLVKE

E3 ubiquitin-protein ligase Mdm2, sequence (Q00987 whole entry, the tested form may be a part): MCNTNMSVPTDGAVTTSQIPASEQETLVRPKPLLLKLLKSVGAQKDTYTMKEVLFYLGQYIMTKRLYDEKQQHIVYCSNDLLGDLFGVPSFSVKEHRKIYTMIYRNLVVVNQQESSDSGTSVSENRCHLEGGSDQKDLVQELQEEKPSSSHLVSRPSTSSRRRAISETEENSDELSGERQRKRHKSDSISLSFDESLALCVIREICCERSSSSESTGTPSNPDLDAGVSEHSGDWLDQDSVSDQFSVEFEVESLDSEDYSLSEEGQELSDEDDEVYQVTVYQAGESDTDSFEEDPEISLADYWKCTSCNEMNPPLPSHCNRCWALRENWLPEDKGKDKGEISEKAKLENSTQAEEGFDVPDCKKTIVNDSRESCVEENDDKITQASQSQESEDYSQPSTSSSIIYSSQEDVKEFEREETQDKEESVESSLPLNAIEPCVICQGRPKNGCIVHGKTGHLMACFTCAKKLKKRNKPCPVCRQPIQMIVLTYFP

Structure (SMILES): Cc1ccc(NC(=O)Cn2cc(CN(C(=O)CCC(=O)OC(C)(C)C)C(C(=O)NC3CCCCC3)c3c[nH]c4cc(Cl)ccc34)nn2)c(C)c1 (stereo not given)
Kd [1]: 33 µM

Structure (SMILES): CC(C)(C)OC(=O)C1CC2CSCN2C12C(=O)Nc1cc(-c3ccc4c(c3)CC(=O)N4)ccc12 (stereo not given)
IC50 [4]: 45 µM

Structure (SMILES): Cc1ccn2cc(Cn3cc(CN(C(=O)CCC(=O)OC(C)(C)C)C(C(=O)NC4C[C@@H]5CC[C@]4(C)C5(C)C)c4c[nH]c5cc(Cl)ccc45)nn3)nc2c1 (stereo not given in full)
IC50 [5]: 0.51 µM

The next lines start with the values.

Ki [2]: 0.131 µM
Structure (SMILES): COc1cc(/C=C/C(=O)Nc2ccc3c(c2)C2(C(=O)N3)C(C(=O)OC(C)(C)C)CC3CSCN32)cc(OC)c1OC (stereo not given)

IC50 [3]: 45 µM
Structure (SMILES): COC(=O)C1CC2CSCN2C12C(=O)Nc1ccc(NCc3ccc([N+](=O)[O-])cc3OCC(=O)O)cc12 (stereo not given)
